Experimental data published in patent publication US7605280B2, “Anthraquinone and its derivatives” (Biostatus Limited, priority 1998, dated 2009).

Legend:
[1] = Solubility; assay type: physicochemical
[2] = tested on: viable HL60 cells; test: CLSM analysis of nuclear fluorescence in viable cells; assay type: cell-based, human; conditions: 10 μM for 1 h
Text: The system used was a Leica TCS 4D (LaserTechnik Gmbh, Germany) scanner coupled to a Leitz DM R microscope and operating with an Ominchrome argon/krypton laser. The laser provided emission lines at 488, 568 and 647 nm with variable power. Coverslip cultures were washed briefly in PBS, mounted in inverted positions on glass slides, the coverslips being supported at the edges by a piping of petroleum jelly to prevent the cells from being compressed. The slides were examined immediately using ×100 or ×40 oil immersion objective lenses with mid-range pinhole and photomultiplier gain settings. Excitation/emission wavelengths for DRAQ5, fluorescein and rhodamine 123 were 647 nm/>665 nm, 488 nm/>515 nm and 488 nm/>590 nm respectively. Gain settings were adjusted such that the most fluorescent drug-treated sample gave pixel intensities just below saturation. The black level/offset was adjusted to give effectively zero background (<4 for pixel value) after 16× line noise filtration of images for untreated controls. […]
Thus, FIG. 2h to k show simultaneous CLSM capture of transmission (panels h and j) and the corresponding far red/low infra-red fluorescence (panels i and […] respectively) images of viable HL60 cells exposed to either 10 μM DRAQ5 or 10 μM DRAQ5N for 1 h. • 1. […]

In the case of `CN(C)CCNc1ccc(O)c2c1C(=O)c1c(O)ccc(NCCN(C)C)c1C2=O` [DRAQ5], the solubility [1] is reported as “soluble in biologically compatible solvents including water” and the “integrated nuclear fluorescence intensity per nucleus section, DRAQ5 relative to DRAQ5N-treated cells” value [2] is reported as “approximately 10 fold”.
